Experimental data taken from patent US20250098675A1, “A METHOD OF CONTROLLING RESISTANT AND NON-RESISTANT PESTS” (UPL CORPORATION LIMITED, priority 2021, published 2025).
Like-named read-outs stand apart in the source and are kept apart here.

Legend:
Format in all cases: in vivo
Mahanarva fimbriolata = assay: Field trial, % control of Mahanarva fimbriolata nymphs and adult insects in sugarcane
Description: Trials were carried out in field to assess efficacy of flupyrimin against Mahanarva fimbriolata. Evaluation was done to check % control of nymphs and adult insects at intervals of 30 DAA and 60 DAA (for nymphs) and 7, 30 and 60 DAA (for adult insects). The efficacy was compared with standard insecticides thiamethoxam and ethiprole.

[1] = system: resistant Mahanarva fimbriolata; assay: Greenhouse pot trial, drench, mortality of resistant nymphs; conditions: for mortality at 400 g/ha / mortality at 250 g/ha: Mahanarva fimbriolata, soil; for mortality at 400 g/ha: read-out: Mortality (%) of Nymphs-Resistant population % Mortality, 400 g.a.i/ha; for mortality at 250 g/ha: read-out: Mortality (%) of Nymphs-Resistant population % Mortality, 250 g.a.i/ha
Description: The sugarcane plants were sown under greenhouse in pots. Artificially, each pot was infested with 10 nymphs in 3rd/4th instar. Infestation was done 24 h before of application for insect acclimatization. The treatments were applied via drenching, after infestation. The assessments were made at 3 and 5 days after infestation in 4 replications.

adult Sphenophorus levis = assay: Control efficacy against adults, plots sprayed
Description: The efficacy of flupyrimin was determined against adult and the larvae stage of Sphenophorus levis. To evaluate the efficacy of flupyrimin plots with ten Sphenophorus levis adults were populated. Flupyrimin at a concentration of 500 g/L was used to treat the plots by spraying. Each plot received a 10 cm splitted lengthwise suarcane stem piece as feed and accordingly each plot was subjected to treatment conditions as depicted in the table below.

[2] = system: larvae Sphenophorus levis; assay: Larvae bioassay, residual contact and ingestion, dipped sugarcane stalks; conditions: for Larvae efficacy control (%): 1DAA
Description: The efficacy of flupyrimin was determined against the larvae stage of Sphenophorus levis. Accordingly, the larvae bioassay method was residual contact and ingestion. The sugarcane stalks were dipped in a insecticide solution then placed on a papart towel to dry. The sugarcane stalks were placed in glass tubes, then S. levis first stage and last instar lavae were introduced in each tube separately. The mortality achieved was 100% at 1 DAA. The treatments condidtions and the results are depicted in Table 8 below: […]

Compound: CC[S+]([O-])c1c(C#N)nn(-c2c(Cl)cc(C(F)(F)F)cc2Cl)c1N (centres unmarked) [Ethiprole, ethiprole]
- Adults % Control (Mahanarva fimbriolata; 400 g a.i./ha, 7 DAA): 100%
- Adults % Control (Mahanarva fimbriolata; 400 g a.i./ha, 30 DAA): 100%
- Nymphs % Control (Mahanarva fimbriolata; 400 g a.i./ha, 30 DAA): 95%
- Adults % Control (Mahanarva fimbriolata; 400 g a.i./ha, 60 DAA): 100%
- Nymphs % Control (Mahanarva fimbriolata; 400 g a.i./ha, 60 DAA): 100%
- mortality at 400 g/ha ([1]; 0 DAA 3 DAI): 33%
- mortality at 400 g/ha ([1]; 0 DAA 5 DAI): 45%

Compound: O=C(N=c1ccccn1Cc1ccc(Cl)nc1)C(F)(F)F [Flupyrimin, flupyrimin]
- control of S. levis adults (in words) (adult Sphenophorus levis; 9 DAA, no dose stated): almost complete control
- Adults efficacy control (%) (adult Sphenophorus levis; 150 g of a.i/ha (0.30 kg-l/ha), 1DAA): 46.3%
- Adults efficacy control (%) (adult Sphenophorus levis; 150 g of a.i/ha (0.30 kg-l/ha), second value column, time not printed): 75.1%
- Adults efficacy control (%) (adult Sphenophorus levis; 150 g of a.i/ha (0.30 kg-l/ha), third value column, time not printed): 97.3%
- Adults efficacy control (%) (adult Sphenophorus levis; 250 g of a.i/ha (0.50 kg-l/ha), 1DAA): 61.0%
- Adults efficacy control (%) (adult Sphenophorus levis; 250 g of a.i/ha (0.50 kg-l/ha), second value column, time not printed): 80.9%
- Adults efficacy control (%) (adult Sphenophorus levis; 250 g of a.i/ha (0.50 kg-l/ha), third value column, time not printed): 100%
- Adults efficacy control (%) (adult Sphenophorus levis; 300 g of a.i/ha (0.60 kg-l/ha), 1DAA): 59.5%
- Adults efficacy control (%) (adult Sphenophorus levis; 300 g of a.i/ha (0.60 kg-l/ha), second value column, time not printed): 79.5%
- Adults efficacy control (%) (adult Sphenophorus levis; 300 g of a.i/ha (0.60 kg-l/ha), third value column, time not printed): 99.1%
- Adults efficacy control (%) (adult Sphenophorus levis; 500 g of a.i/ha (1.00 kg-l/ha), 1DAA): 56.9%
- Adults efficacy control (%) (adult Sphenophorus levis; 500 g of a.i/ha (1.00 kg-l/ha), second value column, time not printed): 79.9%
- Adults efficacy control (%) (adult Sphenophorus levis; 500 g of a.i/ha (1.00 kg-l/ha), third value column, time not printed): 97.3%
- Adults % Control (Mahanarva fimbriolata; 150 g a.i./ha, 7 DAA): 80%
- Adults % Control (Mahanarva fimbriolata; 150 g a.i./ha, 30 DAA): 100%
- Nymphs % Control (Mahanarva fimbriolata; 150 g a.i./ha, 30 DAA): 62%
- Adults % Control (Mahanarva fimbriolata; 150 g a.i./ha, 60 DAA): 75%
- Nymphs % Control (Mahanarva fimbriolata; 150 g a.i./ha, 60 DAA): 95%
- Adults % Control (Mahanarva fimbriolata; 200 g a.i./ha, 7 DAA): 80%
- Adults % Control (Mahanarva fimbriolata; 200 g a.i./ha, 30 DAA): 50%
- Nymphs % Control (Mahanarva fimbriolata; 200 g a.i./ha, 30 DAA): 97%
- Adults % Control (Mahanarva fimbriolata; 200 g a.i./ha, 60 DAA): 100%
- Nymphs % Control (Mahanarva fimbriolata; 200 g a.i./ha, 60 DAA): 95%
- Adults % Control (Mahanarva fimbriolata; 250 g a.i./ha, 7 DAA): 60%
- Adults % Control (Mahanarva fimbriolata; 250 g a.i./ha, 30 DAA): 100%
- Nymphs % Control (Mahanarva fimbriolata; 250 g a.i./ha, 30 DAA): 92%
- Adults % Control (Mahanarva fimbriolata; 250 g a.i./ha, 60 DAA): 50%
- Nymphs % Control (Mahanarva fimbriolata; 250 g a.i./ha, 60 DAA): 100%
- Nymphs % Control (Mahanarva fimbriolata; 250 g a.i./ha, 60 DAA, listed as flupyrimin): complete control
- Adults % Control (Mahanarva fimbriolata; 300 g a.i./ha, 7 DAA): 40%
- Adults % Control (Mahanarva fimbriolata; 300 g a.i./ha, 30 DAA): 25%
- Nymphs % Control (Mahanarva fimbriolata; 300 g a.i./ha, 30 DAA): 81%
- Adults % Control (Mahanarva fimbriolata; 300 g a.i./ha, 60 DAA): 100%
- Nymphs % Control (Mahanarva fimbriolata; 300 g a.i./ha, 60 DAA): 95%
- Larvae efficacy control (%) ([2]; 150 g of a.i/ha (0.30 kg-l/ha)): 100%
- Larvae efficacy control (%) ([2]; 250 g of a.i/ha (0.50 kg-l/ha)): 100%
- Larvae efficacy control (%) ([2]; 300 g of a.i/ha (0.60 kg-l/ha)): 100%
- Larvae efficacy control (%) ([2]; 500 g of a.i/ha (1.00 kg-l/ha)): 100%
- mortality of S. levis larvae ([2]; first stage and last instar larvae, 1 DAA, no dose stated): 100%
- Mortality (%) of Nymphs-Resistant population % Mortality ([1]; 150 g.a.i/ha, 0 DAA 3 DAI): 85%
- Mortality (%) of Nymphs-Resistant population % Mortality ([1]; 150 g.a.i/ha, 0 DAA 5 DAI): 98%
- Mortality (%) of Nymphs-Resistant population % Mortality ([1]; 200 g.a.i/ha, 0 DAA 3 DAI): 97%
- Mortality (%) of Nymphs-Resistant population % Mortality ([1]; 200 g.a.i/ha, 0 DAA 5 DAI): 100%
- Mortality (%) of Nymphs-Resistant population % Mortality ([1]; 250 g.a.i/ha, 0 DAA 3 DAI): 98%
- Mortality (%) of Nymphs-Resistant population % Mortality ([1]; 250 g.a.i/ha, 0 DAA 5 DAI): 98%
- Mortality (%) of Nymphs-Resistant population % Mortality ([1]; 300 g.a.i/ha, 0 DAA 3 DAI): 97%
- Mortality (%) of Nymphs-Resistant population % Mortality ([1]; 300 g.a.i/ha, 0 DAA 5 DAI): 100%
- control of resistant nymphs (in words) ([1]; summary of the table, no dose stated): effective in completely controlling resistant nymphs

Compound: CN1COCN(Cc2cnc(Cl)s2)/C1=N\[N+](=O)[O-] [Thiamethoxam, thiamethoxam]
- Adults % Control (Mahanarva fimbriolata; 250 g a.i./ha, 7 DAA): 60%
- Adults % Control (Mahanarva fimbriolata; 250 g a.i./ha, 30 DAA): 50%
- Nymphs % Control (Mahanarva fimbriolata; 250 g a.i./ha, 30 DAA): 86%
- Adults % Control (Mahanarva fimbriolata; 250 g a.i./ha, 60 DAA): 75%
- Nymphs % Control (Mahanarva fimbriolata; 250 g a.i./ha, 60 DAA): 90%
- mortality at 250 g/ha ([1]; 0 DAA 3 DAI): 23%
- mortality at 250 g/ha ([1]; 0 DAA 5 DAI): 25%
